This passage reports TGI results from PubChem BioAssay (NCI).

Among the test systems are SK-OV-3 ovarian; UACC-257 melanoma; UO-31 renal; MOLT-4 leukemia; KM12 colon; XF 498 CNS; 786-0 renal; RXF 393 renal; CCRF-CEM leukemia; K-562 leukemia; CAKI-1 renal; OVCAR-5 ovarian; SF-295 CNS; RPMI-8226 leukemia; OVCAR-4 ovarian; SF-268 CNS; HCT-116 colon.
Assay in all cases: NCI-60 cell line screen, 48 h

Structures are written as SMILES.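 Step 1: Grow cells in 96-well plates. Step 2: Expose to compound for 48 hours at 5 concentrations. Step 3: Interpolate endpoints linearly; if unreached, use highest concentration. At the TGI there is no net growth.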

On to `O=C1C2CN(Cc3ccccc3)CC1CN(CC1CC1)C2`, for which the TGI in the experiment with SK-OV-3 ovarian, in the experiment on UACC-257 melanoma, with UO-31 renal, with MOLT-4 leukemia, in the experiment with KM12 colon and in the experiment with XF 498 CNS was > 100 µM throughout. In addition, the TGI in the experiment on 786-0 renal, in the experiment with RXF 393 renal, in the experiment with CCRF-CEM leukemia, in the experiment on K-562 leukemia, in the experiment with CAKI-1 renal and in the experiment with OVCAR-5 ovarian was > 100 µM in each case. The TGI in the experiment with SF-295 CNS, with RPMI-8226 leukemia, in the experiment with OVCAR-4 ovarian and in the experiment with SF-268 CNS was > 100 µM each time.

For `COc1cc(/C=C\c2cccnc2)cc(OC)c1OC`, the TGI in the experiment with UACC-257 melanoma is > 100 µM; in the experiment on UO-31 renal it was > 100 µM; with MOLT-4 leukemia, 43.1 µM; with KM12 colon, > 100 µM; in the experiment on HCT-116 colon it was > 100 µM; in the experiment on XF 498 CNS, > 100 µM. The TGI in the experiment with 786-0 renal is > 100 µM; in the experiment with RXF 393 renal it was 88.5 µM; with CCRF-CEM leukemia, > 100 µM; in the experiment on K-562 leukemia, > 100 µM; in the experiment on CAKI-1 renal it was > 100 µM; with OVCAR-5 ovarian, > 100 µM. The TGI with SF-295 CNS is > 100 µM; in the experiment with RPMI-8226 leukemia, 47.7 µM; with OVCAR-4 ovarian, > 100 µM; in the experiment with SF-268 CNS it was > 100 µM.
